Read-outs that look alike come from different tables or passages of the source.
How the values were obtained:
IMP-1 = IMP-1 (Serratia marcescens, UniProt P52699); test: Enzymatic assay for determination of inhibition constants, reporter substrate method, purified IMP-1; type: biochemical; details: for % inhibition IMP-1: at 200 μM (maximal tested concentration); for Ki: isolated MBL, competitive inhibition model;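 as to all read-outs here: purified IMP-1 (1-70 nM) hydrolysing a reporter substrate, initial rates followed as absorbance change at 260, 300 or 482 nm in 50 mM HEPES pH 7.5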
Chain of IMP-1 (P52699 19-246, looked up, species assumed): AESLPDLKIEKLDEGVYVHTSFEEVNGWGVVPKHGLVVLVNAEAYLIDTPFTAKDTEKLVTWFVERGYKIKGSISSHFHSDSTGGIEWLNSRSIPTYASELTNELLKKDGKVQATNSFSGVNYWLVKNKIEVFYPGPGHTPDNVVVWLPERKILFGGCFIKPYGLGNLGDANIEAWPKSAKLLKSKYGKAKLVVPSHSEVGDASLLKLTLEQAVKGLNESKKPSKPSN
Protocol: (§1) The reaction rate was measured as the variation of absorbance observed upon substrate hydrolysis in a UV-Vis spectrophotometer or microplate reader at a wavelength of 300 nm (imipenem, meropenem), 260 nm (cefotaxime) or 482 nm (nitrocefin) in 50 mM HEPES buffer (pH 7.5) and in the presence of a purified MBL enzyme (such as VIM-1, VIM-2, VIM-4, NDM-1 and IMP-1, at a final concentration ranging 1-70 nM).
(§2) The inhibition constants (Ki) were determined on the basis of a model of competitive inhibition by analyzing the dependence of the ratio v0/vi (v0, hydrolysis velocity in the absence of inhibitor; vi, hydrolysis velocity in the presence of inhibitor) as a function of [I] as already described [Docquier J. D., Lamotte-Brasseur J., Galleni M., Amicosante G., Frère J. M., Rossolini G. M. (2003) J. Antimicrob. […] The slope of the plot of v0/vi vs [I], which corresponds to Km^S/(Km^S+[S])Ki (where Km^S is the Km value of the reporter substrate and [S] its concentration in the reaction mixture) and allowed the calculation of the Ki value. Alternatively, a Dixon plot analysis was carried out, by measuring the initial hydrolysis rates in the presence of variable concentrations of inhibitor and substrate.

VIM-2 = VIM-2 (Escherichia coli, UniProt Q5U7L7); test: Enzymatic assay for determination of inhibition constants, reporter substrate method, purified VIM-2; type: biochemical;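 also: purified VIM-2 hydrolysing a reporter substrate (imipenem, meropenem, cefotaxime or nitrocefin), reaction rate read as absorbance change, HEPES 50 mM at pH 7.5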
NDM-1 = NDM-1 (Klebsiella pneumoniae, UniProt C7C422); test: Enzymatic assay for determination of inhibition constants, reporter substrate method, purified NDM-1; type: biochemical; details: for Ki: isolated MBL, competitive inhibition model;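 as to all read-outs here: purified enzyme activity followed as absorbance change from reporter substrate hydrolysis on a UV-Vis spectrophotometer or plate reader, 50 mM HEPES pH 7.5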
Chain of NDM-1 (C7C422 29-270, looked up, species assumed): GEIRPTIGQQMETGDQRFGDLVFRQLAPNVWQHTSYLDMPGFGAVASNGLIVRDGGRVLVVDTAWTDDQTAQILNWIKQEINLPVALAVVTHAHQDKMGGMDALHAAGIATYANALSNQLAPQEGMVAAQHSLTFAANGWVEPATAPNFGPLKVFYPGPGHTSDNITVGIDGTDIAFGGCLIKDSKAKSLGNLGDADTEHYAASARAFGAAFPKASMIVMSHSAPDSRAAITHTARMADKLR

VIM-1 = VIM-1 (Pseudomonas aeruginosa, UniProt A0A0F7KYQ8); test: Enzymatic assay for determination of inhibition constants, reporter substrate method, purified VIM-1; type: biochemical; details: isolated MBL, competitive inhibition model;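 also: initial hydrolysis rates of a reporter β-lactam (imipenem, meropenem, cefotaxime or nitrocefin) followed by absorbance change, purified enzyme at 1–70 nM in 50 mM HEPES pH 7.5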
Protocol: as §1, §2

VIM-4 = VIM-4 (Pseudomonas aeruginosa, UniProt Q8KRJ3); test: Enzymatic assay for determination of inhibition constants, reporter substrate method, purified VIM-4; type: biochemical; details: at 100 μM (maximal tested concentration);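 also: purified VIM-4 (1-70 nM) in 50 mM HEPES pH 7.5, reporter substrate hydrolysis rate tracked by absorbance change (nitrocefin 482 nm, imipenem or meropenem 300 nm, cefotaxime 260 nm)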
Protocol: as §1, §2

[1] = test system: K. pneumoniae SI-001 (blaVIM-1+); test: Broth microdilution MIC of meropenem in absence and presence of MBL inhibitor, SI-001; type: cell-based; details: MBL inhibitor fixed at 32 μg/ml, Mueller-Hinton broth, duplicate
Protocol: (§3) This method was performed in agreement with the CLSI recommendations (document M07-A10, 2015, “Methods for Dilution Antimicrobial Susceptibility Tests for Bacteria That Grow Aerobically”).
(§4) MIC values of meropenem (MEM) were determined in duplicate in Mueller-Hinton broth as recommended by CLSI (document M07-A10, 2015), in absence and presence of a fixed concentration of MBL inhibitor (32 μg/ml).

[2] = test system: K. pneumoniae S1-002 (blaVIM-4+); test: Broth microdilution MIC of meropenem in absence and presence of MBL inhibitor, S1-002; type: cell-based; details: MBL inhibitor fixed at 32 μg/ml, Mueller-Hinton broth, duplicate
Protocol: as §3, §4

[3] = isolated MBL, competitive inhibition model, read-out: Ki VIM-2
[4] = at 200 μM (maximal tested concentration)
[5] = at 100 μM (maximal tested concentration)

SMILES | % inhibition IMP-1 (IMP-1) [% at 200 μM] | Ki (VIM-2; [3]) [µM] | melting point [°C] | Ki (NDM-1) [µM] | Ki (IMP-1) [µM] | Ki (VIM-1) [µM] | % inhibition VIM-4 (VIM-4) [% at 100 μM] | MIC potentiation of meropenem (x.log2 dilutions), K. pneumoniae SI-001 (blaVIM-1+) [1] [log2 dilutions] | MIC potentiation of meropenem (x.log2 dilutions), K. pneumoniae S1-002 (blaVIM-4+) [2] [log2 dilutions] | Ki (VIM-2; as listed in Table 2, read-out: Ki on VIM-2) [µM] | % inhibition VIM-2 (VIM-2; [4]) [% at 200 μM] | % inhibition NDM-1 (NDM-1; [5]) [% at 100 μM] | % inhibition NDM-1 (NDM-1; [4]) [% at 200 μM] | % inhibition VIM-2 (VIM-2; [5]) [% at 100 μM]
Cc1nnsc1-c1n[nH]c(=S)n1CCc1ccccc1C(=O)O [Compound 23, 2-{2-[3-(4-methyl-1,2,3-thiadiazol-5-yl)-5-sulfanylidene-4,5-dihydro-1H-1,2,4-triazol-4-yl]ethyl}benzoic acid] | 95 | > 100 | 195 to 196 | > 100 | – | – | – | – | – | – | – | – | – | –
O=C(O)CC(Cn1c(-c2ccccc2)n[nH]c1=S)c1ccc(Cl)cc1 (stereo not drawn) [Compound 21, 3-(4-chlorophenyl)-4-(3-phenyl-5-sulfanylidene-4,5-dihydro-1H-1,2,4-triazol-4-yl)butanoic acid] | – | 1 to 10 | 153 to 154 | > 100 | > 100 | > 100 | 95 | – | – | – | – | – | – | –
O=C(O)c1ccccc1CCn1c(-c2cccc(OCCN3CCOCC3)c2)n[nH]c1=S [Compound 62, o-(2-{3-[m-(2-Morpholinoethoxy)phenyl]-5-thioxo-1,4-dihydro-1,2,4-triazol-4-yl}ethyl)benzoic acid] | – | < 1 | – | > 100 | > 100 | 1 to 10 | – | 2 | 3 | – | – | – | – | –
O=C(O)CCCn1c(-c2ccc3ccccc3c2)n[nH]c1=S [Compound 19, 4-[3-(naphthalen-2-yl)-5-sulfanylidene-4,5-dihydro-1H-1,2,4-triazol-4-yl]butanoic acid] | – | 1 to 10 | 220 to 221 | > 100 | > 100 | > 100 | 75 | – | – | – | – | – | – | –
O=C(O)c1ccccc1CCn1c(-c2ccccc2)n[nH]c1=S [Compound 1, 2-[2-(3-phenyl-5-sulfanylidene-4,5-dihydro-1H-1,2,4-triazol-4-yl)ethyl]benzoic acid] | – | < 1 | 220 to 221 | > 100 | > 100 | > 100 | – | – | – | < 1 | – | – | – | –
CC(C)(C)OC(=O)NC(CCCn1c(-c2ccccc2)n[nH]c1=S)C(=O)O (stereo not drawn) [Compound 25, 2-{[(tert-butoxy)carbonyl]amino}-5-(3-phenyl-5-sulfanylidene-4,5-dihydro-1H-1,2,4-triazol-4-yl)pentanoic acid] | – | 1 to 10 | 105 to 106 | > 100 | > 100 | – | 85 | – | – | – | – | – | – | –
COc1cccc(-c2n[nH]c(=S)n2CCCC(=O)O)c1 [Compound 24, 4-[3-(3-methoxyphenyl)-5-sulfanylidene-4,5-dihydro-1H-1,2,4-triazol-4-yl]butanoic acid] | – | – | 159 to 160 | > 100 | > 100 | – | 85 | – | – | – | 70 | – | – | –
O=C(O)c1ccccc1CCn1c(-c2ccc(Cl)s2)n[nH]c1=S [Compound 27, 2-{2-[3-(5-chlorothiophen-2-yl)-5-sulfanylidene-4,5-dihydro-1H-1,2,4-triazol-4-yl]ethyl}benzoic acid] | – | 1 to 10 | 240 to 241 | > 100 | > 100 | – | 85 | – | – | – | – | – | – | –
O=C(O)CCCCCn1c(-c2ccccc2)n[nH]c1=S [Compound 45, 6-(3-Phenyl-5-sulfanylidene-4,5-dihydro-1H-1,2,4-triazol-4-yl)hexanoic acid] | – | < 1 | 136 to 137 | – | > 100 | – | 85 | – | – | – | – | 55 | – | –
O=C(O)C1CCC(Cn2c(-c3ccccc3)n[nH]c2=S)CC1 (stereo not drawn) [Compound 34, 4-[(3-phenyl-5-sulfanylidene-4,5-dihydro-1H-1,2,4-triazol-4-yl)methyl]cyclohexane-1-carboxylic acid] | – | – | 207 to 208 | > 100 | > 100 | – | 90 | – | – | – | 75 | – | – | –
O=C(O)c1ccccc1CCn1c(-c2ccc3ccccc3c2)n[nH]c1=S [Compound 3, 2-{2-[3-(naphthalen-2-yl)-5-sulfanylidene-4,5-dihydro-1H-1,2,4-triazol-4-yl]ethyl}benzoic acid] | – | < 1 | 240 to 241 | – | 10 to 100 | > 100 | 75 | – | – | – | – | – | 60 | –
COc1ccc(O)c(-c2n[nH]c(=S)n2CCCC(=O)O)c1 [Compound 18, 4-[3-(2-hydroxy-5-methoxyphenyl)-5-sulfanylidene-4,5-dihydro-1H-1,2,4-triazol-4-yl]butanoic acid] | – | 1 to 10 | 155 to 156 | > 100 | > 100 | > 100 | 90 | – | – | – | – | – | – | –
COc1ccc(O)c(-c2n[nH]c(=S)n2CCCCC(=O)O)c1 [Compound 29, 5-[3-(2-hydroxy-5-methoxyphenyl)-5-sulfanylidene-4,5-dihydro-1H-1,2,4-triazol-4-yl]pentanoic acid] | – | – | 155 to 156 | > 100 | > 100 | – | 90 | – | – | – | 60 | – | – | –
O=C(O)c1ccccc1CNn1c(-c2ccc3ccccc3c2)n[nH]c1=S [Compound 16, 2-({[3-(naphthalen-2-yl)-5-sulfanylidene-4,5-dihydro-1H-1,2,4-triazol-4-yl]amino}methyl)benzoic acid] | – | 1 to 10 | 213 to 214 | > 100 | > 100 | > 100 | – | – | – | – | – | – | – | –
FC(F)(F)c1cc(SCCn2c(-c3ccccc3)n[nH]c2=S)c2ccccc2n1 [Compound 28, 3-phenyl-4-(2-{[2-(trifluoromethyl)quinolin-4-yl]sulfanyl}ethyl)-4,5-dihydro-1H-1,2,4-triazole-5-thione] | – | > 100 | 184 to 185 | 10 to 100 | > 100 | – | – | – | – | – | – | – | – | –
CCCCn1c(-c2ccccc2)n[nH]c1=S [Compound 32, 4-butyl-3-phenyl-4,5-dihydro-1H-1,2,4-triazole-5-thione] | – | 1 to 10 | 128 to 129 | > 100 | 10 to 100 | – | 75 | – | – | – | – | – | – | –
O=C(O)CC1(Cn2c(-c3ccccc3)n[nH]c2=S)CCCCC1 [Compound 17, 2-{1-[(3-phenyl-5-sulfanylidene-4,5-dihydro-1H-1,2,4-triazol-4-yl)methyl]cyclohexyl}acetic acid] | – | 1 to 10 | 80 to 81 | > 100 | > 100 | – | 60 | – | – | – | – | – | – | –
O=C(O)c1ccccc1CCn1c(C23CC4CC(CC(C4)C2)C3)n[nH]c1=S [Compound 35, 2-{2-[3-(adamantan-1-yl)-5-sulfanylidene-4,5-dihydro-1H-1,2,4-triazol-4-yl]ethyl}benzoic acid] | – | 1 to 10 | > 250 | > 100 | > 100 | – | 55 | – | – | – | – | – | – | –
O=C(O)CCCn1c(-c2ccc3ccccc3n2)n[nH]c1=S [Compound 50, 4-[3-(Quinolin-2-yl)-5-sulfanylidene-4,5-dihydro-1H-1,2,4-triazol-4-yl]butanoic acid] | – | – | 238 to 239 | – | > 100 | – | 85 | – | – | – | 80 | – | 50 | –
[N-]=[N+]=NCCn1c(-c2ccccc2)n[nH]c1=S [Compound 49, 4-(2-Azidoethyl)-3-phenyl-4,5-dihydro-1H-1,2,4-triazole-5-thione] | 90 | > 100 | 108 to 109 | > 100 | – | – | – | – | – | – | – | – | – | –
O=C(O)C1CCCC(n2c(-c3ccccc3)n[nH]c2=S)C1 (stereo not drawn) [Compound 47, 3-(3-Phenyl-5-sulfanylidene-4,5-dihydro-1H-1,2,4-triazol-4-yl)cyclohexane-1-carboxylic acid] | – | – | 234 to 235 | > 100 | > 100 | – | 70 | – | – | – | – | – | – | 60
O=C(O)CCCCn1c(-c2ccc3ccccc3c2)n[nH]c1=S [Compound 30, 5-[3-(naphthalen-2-yl)-5-sulfanylidene-4,5-dihydro-1H-1,2,4-triazol-4-yl]pentanoic acid] | 60 | 1 to 10 | 170 to 171 | > 100 | – | – | 80 | – | – | – | – | – | – | –
CCCCCCn1c(-c2ccccc2)n[nH]c1=S [Compound 26, 4-hexyl-3-phenyl-4,5-dihydro-1H-1,2,4-triazole-5-thione] | – | 1 to 10 | 98 to 99 | > 100 | > 100 | – | 85 | – | – | – | – | – | – | –
COc1cccc(-c2n[nH]c(=S)n2CCc2ccccc2C(=O)O)c1 [Compound 22, 2-{2-[3-(3-methoxyphenyl)-5-sulfanylidene-4,5-dihydro-1H-1,2,4-triazol-4-yl]ethyl}benzoic acid] | – | < 1 | 197 to 198 | > 100 | > 100 | – | 80 | – | – | – | – | – | – | –

From patent publication US20220000841A1, “INHIBITORS OF METALLO-BETA-LACTAMASES” (CENTRE NATIONAL DE LA RECHERCHE SCIENTIFIQUE, priority 2018, published 2022)
